According to patent publication EP4620956A1, “PARP1 INHIBITORS” (Zhejiang Yangli Pharmaceutical Technology Co., Ltd., priority 2022, dated 2024):

Key:
DLD-1 WT = assay: Anti-proliferative activity (CellTiter-Glo, 7 days), DLD-1 WT; format: cell-based, human
Protocol: The anti-proliferation experiment of the compounds on tumour cells adopted the most widely used ATP concentration-based detection method at present. MDA-MB-231 and MDA-MB-436 cell lines were obtained from ATCC, DLD-1 human colourectal adenocarcinoma epithelial cells and DLD-1 BRCA2^-/- cells were obtained from Horizon, and the cells were revived. After the cells were stable, the cells were collected. When the viable cell count exceeded 90%, 450-500 cells were seeded into a 384-well plate. The next day, the example compounds with serially diluted concentrations were added. Only buffer was added to the Max well, and 50 µM AZD2281 was added to the Min well. The plate was incubated for 7 days, and on the eighth day, CellTiter-Glo® reagent (Promega, G7573) was added. The plate was incubated at room temperature for 30 minutes, and the values were read on Envision (PE). The inhibition rate was calculated using the fluorescence values from the Max and Min wells, and the dose-response curve was fitted using the analysis software GraphPad Prism 5 to obtain the IC50 value of each compound for the enzyme activity.

PARP5a = molecular target: T1, PARP5a (Homo sapiens, UniProt O95271); assay: Inhibition of PARP5a enzyme activity (chemiluminescence); format: biochemical
T1 construct: purchased BPS 80504

DLD-1 BRCA2^-/- cells = assay: Apoptosis in BRCA2-deficient DLD-1 cells (Annexin V/PI flow cytometry); format: cell-based, human; conditions: 7 days, different concentrations, three experiments, FIG. 4
Protocol: The mechanism of the anti-proliferative effect of the compounds on BRCA-mutated tumours was analysed, and the impact of the compounds on apoptosis in the BRCA2-mutated cell line was analysed by flow cytometry. BRCA2-deficient human colon cancer DLD-1 cells ([…]) were adherently cultured, with the culture conditions of RPMI1640 medium supplemented with 1% foetal bovine serum and 100 µg/mL hygromycin B. Once entering the logarithmic growth phase, the cells were collected and placed in a 6-well plate with 600,000 cells per well. The cells were allowed to adhere to the plate in a 37°C/5% CO2 incubator overnight. Different concentrations of compounds were added to each well and incubated in the incubator. After 7 days, the cells were collected and placed in a 96-well plate. 195 µL of Annexin V-FITC binding buffer was added to each well to resuspend the cells. Then 5 µL of Annexin V-FITC (beyotime, C1052) was added and gently mixed. […] The data acquired from the flow cytometer were analysed using FlowJo software.
For apoptosis analysis, the apoptosis samples were dragged into FlowJo, the raw data were double-clicked to open the graph window, and FSC-A was selected for the X-axis and SSC-A for the Y-axis. […] The "analysed cell population" was double-clicked in the SSC/FSC plot. […]

T1 sequence (O95271 1001-1327): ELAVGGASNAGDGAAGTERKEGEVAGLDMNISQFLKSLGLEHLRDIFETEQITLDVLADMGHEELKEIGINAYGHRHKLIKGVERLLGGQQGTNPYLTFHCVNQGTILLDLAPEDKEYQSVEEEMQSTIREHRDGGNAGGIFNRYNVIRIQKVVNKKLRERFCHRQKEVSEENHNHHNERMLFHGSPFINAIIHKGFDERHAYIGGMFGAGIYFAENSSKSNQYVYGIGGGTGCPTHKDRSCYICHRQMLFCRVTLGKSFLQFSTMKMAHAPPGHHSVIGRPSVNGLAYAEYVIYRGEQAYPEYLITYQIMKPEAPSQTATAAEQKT

Compound: [2H]C([2H])([2H])NC(=O)c1ccc(N2CCN(Cc3cnc4c(N)c(CC)c(=O)[nH]c4c3)CC2)c(F)n1 [Example 4, 5-(4-((8-Amino-7-ethyl-6-oxo-5,6-dihydro-1,5-naphthyridin-3-yl)methyl)piperazin-1-yl)-6-fluoro-N-(methyl-d3)picolinamide]
- inhibition on cell proliferation at the highest concentration (DLD-1 WT; BRCA2-normal DLD-1 cell line, 10 µM): no detectable inhibition
- IC50 (DLD-1 WT; Homo sapiens, DLD-1, 168 h, BRCA2-normal, 7 days): > 10 µM
- IC50 (PARP5a; enzyme activity): 4.06 µM
- PARP5a multiple vs PARP1 (PARP5a; ratio relative to the PARP1 enzyme activity): 8,467
- proportion of apoptotic cells (DLD-1 BRCA2^-/- cells): higher proportion of apoptotic cells at different concentrations than the reference compound AZD5305
